One experiment concerns the target Ba/F3 V617F cells (Homo sapiens, UniProt O60674, V617F, cells depend on it). In words: Proliferation assay (Cell Titer-Glo, 72 h) utilizing Ba/F3 V617F cells. The note with it: Ba/F3 V617F cells, proliferation, level of activity given as class symbol, read-out: IC50 (the source's name). In kind it is cell-based, mouse. The method, then: Ba/F3 V617F cells are maintained and plated in RPMI with 10% FBS. Plating density for these cells is 1×10^5 cells/mL.
The cells were resuspended in a corresponding medium at a required cell density (see above). 100μ of cell suspension was added to each well of a flat bottom 96 well white plate. The compound was serially diluted in DMSO from 5 mM in 3-fold dilutions, and then diluted 1:250 in the RPMI 1640 medium containing 5% FBS and pen/strep. 100 μL of resulting 2× compound solution was added per well in duplicate and the cells were allowed to proliferate for 72 hours at 37° C.
Proliferation was measured using Cell Titer-Glo. The substrate was thawed and allowed to come to ambient temperature. After removal of top 100 μL of medium from each well, 100 μL of the premixed Cell Titer-Glo reagent was added to each well. The plates were mixed on an orbital shaker for three minutes to induce lysis and incubated at ambient temperature for an additional five minutes to allow the signal to equilibrate. The Luminescence was read on the Wallac Plate Reader.
The results of the ability of the compounds of the invention to inhibit JAK2 activity, when tested in the above assay utilizing Ba/F3 V617F cells, are shown in the following Tables 2-3 wherein the level of activity (i.e., the IC50) for each compound is indicated in Tables 2-3. The compound numbers in Tables 2-3 refers to the compounds disclosed herein as being prepared by the methods disclosed herein: […]
A general note: In ATP-based viability assays light output follows the ATP content of the culture.
Ba/F3 V617F cells, sequence (O60674 whole entry V617F): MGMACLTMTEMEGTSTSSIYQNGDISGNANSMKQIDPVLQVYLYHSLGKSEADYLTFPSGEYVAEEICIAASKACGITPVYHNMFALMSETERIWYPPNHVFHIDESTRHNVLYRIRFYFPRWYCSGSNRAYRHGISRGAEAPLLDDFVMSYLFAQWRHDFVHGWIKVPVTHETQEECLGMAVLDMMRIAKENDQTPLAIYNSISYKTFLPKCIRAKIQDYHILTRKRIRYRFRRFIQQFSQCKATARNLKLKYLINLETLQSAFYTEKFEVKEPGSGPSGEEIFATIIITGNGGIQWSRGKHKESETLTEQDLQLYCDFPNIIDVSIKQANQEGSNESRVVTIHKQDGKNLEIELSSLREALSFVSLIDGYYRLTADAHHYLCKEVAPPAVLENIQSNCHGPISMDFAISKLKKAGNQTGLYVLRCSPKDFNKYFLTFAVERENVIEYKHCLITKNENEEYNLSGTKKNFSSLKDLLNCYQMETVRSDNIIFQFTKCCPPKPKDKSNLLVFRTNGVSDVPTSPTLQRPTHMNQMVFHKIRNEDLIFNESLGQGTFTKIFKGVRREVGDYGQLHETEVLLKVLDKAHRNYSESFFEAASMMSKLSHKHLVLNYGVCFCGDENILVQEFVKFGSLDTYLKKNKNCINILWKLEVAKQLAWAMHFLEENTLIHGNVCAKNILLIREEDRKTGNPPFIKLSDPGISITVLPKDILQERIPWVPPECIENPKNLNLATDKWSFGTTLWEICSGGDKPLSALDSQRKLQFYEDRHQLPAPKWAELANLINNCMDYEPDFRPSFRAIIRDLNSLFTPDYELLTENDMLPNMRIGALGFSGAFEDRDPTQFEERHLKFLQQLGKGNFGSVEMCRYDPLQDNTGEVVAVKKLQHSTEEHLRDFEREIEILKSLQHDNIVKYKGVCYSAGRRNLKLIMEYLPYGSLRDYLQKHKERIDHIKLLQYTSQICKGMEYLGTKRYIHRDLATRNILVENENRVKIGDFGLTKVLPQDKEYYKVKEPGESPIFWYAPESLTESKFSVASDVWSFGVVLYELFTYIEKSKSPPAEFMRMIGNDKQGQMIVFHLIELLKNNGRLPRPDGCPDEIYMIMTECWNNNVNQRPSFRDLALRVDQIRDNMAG
Regarding `CCCNc1ccc(-c2ccnc(Nc3ccc(N4C[C@@H]5C[C@H]4CN5S(C)(=O)=O)c(C)c3)n2)cn1` [compound 238, 4-(6-(propylamino)pyridin-3-yl)-N-(3-methyl-4-((1S,4S)-5-methylsulfonyl-2,5-diazabicyclo[2.2.1]heptan-2-yl)phenyl)pyrimidin-2-amine], the GI50 is less than 1000 nM.
With `Cc1cc(Nc2nccc(-c3ccc(C(F)(F)F)cc3)n2)ccc1N1C[C@@H]2C[C@H]1CN2C` [compound 269, 4-(4-(trifluoromethyl)phenyl)-N-(3-methyl-4-((1S,4S)-5-methyl-2,5-diazabicyclo[2.2.1]heptan-2-yl)phenyl)pyrimidin-2-amine], the GI50 is less than 1000 nM.
As for `Cc1cc(Nc2nccc(-c3cnc4c(c3)OC(C)(C)C(=O)N4)n2)ccc1N1C[C@@H]2C[C@H]1CN2C(C)C` [compound 246, 4-(2,2-dimethyl-3-oxo-3,4-dihydro-2H-pyrido[3,2-b][1,4]oxazin-7-yl)-N-(3-methyl-4-((1S,4S)-5-(1-methylethyl)-2,5-diazabicyclo[2.2.1]heptan-2-yl)phenyl)pyrimidin-2-amine], the GI50 was less than 1000 nM.
With `Cc1cc(Nc2nccc(-c3ccc(N4C[C@@H]5C[C@H]4CO5)nc3)n2)ccc1N1C[C@@H]2C[C@H]1CO2` [compound 216, 4-(6-((1S,4S)-5-oxa-2-azabicyclo[2.2.1]heptan-2-yl)pyridin-3-yl)-N-(3-methyl-4-((1S,4S)-5-oxa-2-azabicyclo[2.2.1]heptan-2-yl)phenyl)pyrimidin-2-amine], the GI50 is less than 1000 nM.
The same measure, in the same setting: with `CCOCCCNc1ccc(-c2ccnc(Nc3ccc(N4C[C@@H]5C[C@H]4CO5)c(C)c3)n2)cn1` [compound 200, 4-(6-(3-ethoxypropyl)aminopyridin-3-yl)-N-(3-methyl-4-((1S,4S)-5-oxa-2-azabicyclo[2.2.1]heptan-2-yl)phenyl)pyrimidin-2-amine] the figure was less than 1000 nM.
Turning to `CC(=O)N1C[C@@H]2C[C@H]1CN2c1ccc(Nc2nccc(-c3ccc(OC4CCOCC4)nc3)n2)cc1Cl` [compound 260, 4-(6-(tetrahydropyran-4-yloxy)pyridin-3-yl)-N-(3-chloro-4-((1S,4S)-5-acetyl-2,5-diazabicyclo[2.2.1]heptan-2-yl)phenyl)pyrimidin-2-amine], the GI50 fell in the range of 1000 to 10000 nM.
`CN1C[C@@H]2C[C@H]1CN2c1ccc(Nc2nccc(-c3ccc4c(c3)SCC(=O)N4)n2)cc1` [compound 239, 4-(3-oxo-3,4-dihydro-2H-benzo[b][1,4]thiazin-7-yl)-N-(4-((1S,4S)-5-methyl-2,5-diazabicyclo[2.2.1]heptan-2-yl)phenyl)pyrimidin-2-amine]: the GI50 is less than 1000 nM.
Take `Cc1cc(Nc2nccc(-c3ccc(N4CCOCC4)nc3)n2)ccc1N1CCN2C(C1)[C@H]1CC[C@@H]2C1` (stereo partly drawn) [compound 245, 4-(6-(morpholin-4-yl)pyridin-3-yl)-N-(3-methyl-4-((6R,9S)-6,9-methanooctahydro-1H-pyrido[1,2-a]pyrazin-2-yl)phenyl)pyrimidin-2-amine]: the GI50 was less than 1000 nM.
For the compound `CN1C[C@@H]2C[C@H]1CN2c1ccc(Nc2nccc(-c3ccc4c(ccn4-c4ccncc4)c3)n2)cc1F` [compound 233, 4-(1-(pyridin-4-yl)-1H-indol-5-yl)-N-(3-fluoro-4-((1S,4S)-5-methyl-2,5-diazabicyclo[2.2.1]heptan-2-yl)phenyl)pyrimidin-2-amine], the GI50 is less than 1000 nM.

Still in this experiment, the particulars now being: Ba/F3 V617F cells, proliferation, level of activity to inhibit JAK2, read-out: IC50 (the source's name).
For the compound `Cc1cc(Nc2nccc(-c3cc[nH]c3)n2)ccc1N1C[C@@H]2C[C@H]1CN2C` [compound 169, 4-(1H-pyrrol-3-yl)-N-(3-methyl-4-((1S,4S)-5-methyl-2,5-diazabicyclo[2.2.1]heptan-2-yl)phenyl)pyrimidin-2-amine], the GI50 was in the range of 1000 to 10000 nM.
As to `CN1C[C@@H]2C[C@H]1CN2c1ccc(Nc2nccc(-c3ccc(NC4CCCCC4)nc3)n2)cc1C(F)(F)F` [compound 94, 4-(6-(cyclohexylamino)pyridin-3-yl)-N-(3-trifluoromethyl-4-((1S,4S)-5-methyl-2,5-diazabicyclo[2.2.1]heptan-2-yl)phenyl)pyrimidin-2-amine], the GI50 was less than 1000 nM.
For the compound `Cc1cc(Nc2nccc(-c3cncc(C#N)c3)n2)ccc1N1C[C@@H]2C[C@H]1CN2C` [compound 114, 4-(5-cyanopyridin-3-yl)-N-(3-methyl-4((1S,4S)-5-methyl-2,5-diazabicyclo[2.2.1]heptan-2-yl)phenyl)pyrimidin-2-amine], the GI50 fell in the range of 1000 to 10000 nM.
For `CCOCCCNc1ccc(-c2ccnc(Nc3ccc(N4C[C@@H]5C[C@H]4CN5C)c(C)c3)n2)cn1` [compound 186, 4-(6-(3-ethoxypropyl)aminopyridin-3-yl)-N-(3-methyl-4-((1S,4S)-5-methyl-2,5-diazabicyclo[2.2.1]heptan-2-yl)phenyl)pyrimidin-2-amine], the GI50 is less than 1000 nM.
For `CCN(CC)c1nc(-c2ccnc(Nc3ccc(N4C[C@@H]5C[C@H]4CN5C)c(C)c3)n2)cs1` [compound 163, 4-(2-(diethylamino)thiazol-4-yl)-N-(3-methyl-4-((1S,4S)-5-methyl-2,5-diazabicyclo[2.2.1]heptan-2-yl)phenyl)pyrimidin-2-amine], the GI50 is less than 1000 nM.
Regarding `CN1CC2(C)CN(c3ccc(Nc4nccc(-c5ccc(N(C)C)cc5)n4)cc3F)CC(C)(C1)C2` [compound 84, 4-(4-(dimethylamino)phenyl)-N-(3-fluoro-4-(1,5,7-trimethyl-3,7-diazabicyclo[3.3.1]nonan-3-yl)phenyl)pyrimidin-2-amine], the GI50 is less than 1000 nM.
`Cc1cc(Nc2nccc(-c3ccc(C(=O)NC4=NCCS4)cc3)n2)ccc1N1C[C@@H]2C[C@H]1CN2C` [compound 45, 4-(4-(4,5-dihydrothiazol-2-ylcarbamoyl)phenyl)-N-(3-methyl-4-((1S,4S)-5-methyl-2,5-diazabicyclo[2.2.1]heptan-2-yl)phenyl)pyrimidin-2-amine]: the GI50 fell in the range of 1000 to 10000 nM.
As to `CS(=O)(=O)N1C[C@@H]2C[C@H]1CN2c1ccc(Nc2nccc(-c3ccc(N4CCOCC4)nc3)n2)cc1C#N` [compound 117, 4-(6-(morpholin-4-yl)pyridin-3-yl)-N-(3-cyano-4-((1S,4S)-5-methylsulfonyl-2,5-diazabicyclo[2.2.1]heptan-2-yl)phenyl)pyrimidin-2-amine], the GI50 was less than 1000 nM.
On the same count and under the same terms, with `Cc1cc(Nc2nccc(-c3ccc(-c4ncc(-c5ccc(N(C)C)cc5)o4)cc3)n2)ccc1N1C[C@@H]2C[C@H]1CN2C` [compound 104, 4-(4-(5-(4-dimethylaminophenyl)oxazol-2-yl)phenyl)-N-(3-methyl-4-((1S,4S)-5-methyl-2,5-diazabicyclo[2.2.1]heptan-2-yl)phenyl)pyrimidin-2-amine] the figure was 1000 to 10000 nM; with `CN1C2CCC1CN(c1ccc(Nc3nccc(-c4cnc5c(c4)OC(C)(C)C(=O)N5)n3)cc1)C2` [compound 157, 4-(2,2-dimethyl-3-oxo-3,4-dihydro-2H-pyrido[3,2-b][1,4]oxazin-7-yl)-N-(4-(8-methyl-3,8-diazabicyclo[3.2.1]octan-3-yl)phenyl)pyrimidin-2-amine], less than 1000 nM; with `CN(C)c1ccc(-c2ccnc(Nc3ccc(N4C[C@@H]5C[C@H]4CN5C)c(F)c3)n2)cn1` [compound 7, 4-(6-(N,N-dimethylamino)pyridin-3-yl)-N-(3-fluoro-4-((1S,4S)-5-methyl-2,5-diazabicyclo[2.2.1]heptan-2-yl)phenyl)pyrimidin-2-amine], less than 1000 nM.
As to `Cc1cc(Nc2nccc(-c3ccc(NC(=O)C(C)(C)C)cc3)n2)ccc1N1C[C@@H]2C[C@H]1CN2C` [compound 129, 4-(4-(t-butylcarbonylamino)phenyl)-N-(3-methyl-4-((1S,4S)-5-methyl-2,5-diazabicyclo[2.2.1]heptan-2-yl)phenyl)pyrimidin-2-amine], the GI50 is less than 1000 nM.
`CN1CCOc2cc(-c3ccnc(Nc4ccc(N5C[C@@H]6C[C@H]5CN6C)cc4)n3)cnc21` [compound 185, 4-(4-methyl-3,4-dihydro-2H-pyrido[3,2-b][1,4]oxazin-7-yl)-N-(4-((1S,4S)-5-methyl-2,5-diazabicyclo[2.2.1]heptan-2-yl)phenyl)pyrimidin-2-amine]: the GI50 was less than 1000 nM.

Still in this experiment, the particulars now being: inhibition of JAK2 activity, proliferation of Ba/F3 V617F cells, read-out: IC50 (the source's name).
`Cc1cc(Nc2nccc(-c3ccc(NC(=O)C(C)(C)C)cc3)n2)cnc1N1C[C@@H]2C[C@H]1CN2C` [compound 131, 4-(4-(t-butylcarbonylamino)phenyl)-N-(5-methyl-6-((1S,4S)-5-methyl-2,5-diazabicyclo[2.2.1]heptan-2-yl)pyridin-3-yl)pyrimidin-2-amine]: the GI50 is less than 1000 nM.
In the case of `Cc1cc(Nc2nccc(-c3ccc(NS(C)(=O)=O)nc3)n2)cnc1N1C[C@@H]2C[C@H]1CN2C` [compound 154, 4-(6-(methylsulfonylamino)pyridin-3-yl)-N-(5-methyl-6-((1S,4S)-5-methyl-2,5-diazabicyclo[2.2.1]heptan-2-yl)pyridin-3-yl)pyrimidin-2-amine], the GI50 is greater than 20000 nM.
Turning to `Cc1cc(Nc2nccc(-c3ccc4c(ccn4-c4ccncc4)c3)n2)cnc1N1C[C@@H]2C[C@H]1CN2C` [compound 236, 4-(1-(pyridin-4-yl)-1H-indol-5-yl)-N-(5-methyl-6-((1S,4S)-5-methyl-2,5-diazabicyclo[2.2.1]heptan-2-yl)pyridin-3-yl)pyrimidin-2-amine], the GI50 is less than 1000 nM.

The values above are taken from US9624229B2, “Pyrimidine-2-amine compounds and their use as inhibitors of JAK kinases” (Rigel Pharmaceuticals, Inc., priority 2008, dated 2017).
